From publication PMC10714424, “Discovery of a Potent Dual Inhibitor of Aromatase and Aldosterone Synthase” (ACS Pharmacology & Translational Science, 2023)
Where two headings read alike, the source gives them in different places. Blank lines part the entries; values can stand above or below the compound they belong to.

Key:
CYP19A1 (Aromatase) = molecular target: T1, CYP19A1 (Aromatase) (Homo sapiens, UniProt P11511); experiment: Aromatase (CYP19A1) Inhibitor Screening Kit, recombinant enzyme; format: biochemical
T1 construct: purchased BioVision K984-100
T1 sequence (P11511 1-503): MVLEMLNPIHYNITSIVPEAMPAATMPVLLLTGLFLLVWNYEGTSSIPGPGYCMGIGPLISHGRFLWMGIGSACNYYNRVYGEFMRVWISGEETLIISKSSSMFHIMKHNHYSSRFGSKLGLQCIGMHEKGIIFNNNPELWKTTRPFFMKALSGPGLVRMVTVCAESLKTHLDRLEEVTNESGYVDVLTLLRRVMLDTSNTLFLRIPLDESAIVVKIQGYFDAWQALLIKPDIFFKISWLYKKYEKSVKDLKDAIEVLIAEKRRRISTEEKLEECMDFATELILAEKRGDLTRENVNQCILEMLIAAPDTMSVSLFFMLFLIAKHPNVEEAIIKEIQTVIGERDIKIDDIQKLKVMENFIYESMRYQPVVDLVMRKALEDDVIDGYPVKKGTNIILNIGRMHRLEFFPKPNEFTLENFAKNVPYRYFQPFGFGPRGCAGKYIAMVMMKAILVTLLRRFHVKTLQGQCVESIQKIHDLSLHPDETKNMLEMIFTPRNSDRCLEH
Experimental: The in vitro tests on Aromatase were performed by using the Kit Cat# K984-100 assay kit; the Regeneration System, 100× and NADP^+: (100×), 10 mM were used as reaction buffer. In particular, the enzyme was first prepared with the Regeneration System and substrate with NADP^+ in freshly prepared reaction buffer. Then, the resulting solution was delivered into the reaction well.

[1] = tested on: CYP11B2 (Aldosterone Synthase); conditions: cited from earlier work
MCF-7 cells = experiment: Cell proliferation assay (trypan blue cell count); format: cell-based, human; conditions: read-out: antiproliferative IC50
Experimental: MCF-7 and MDA-MB-231 cells were plated in 24-well plates and allowed to attach overnight. […] At the end of the treatment, viable cells (evaluated by trypan blue dye exclusion) were counted with a hemocytometer.

[2] = molecular target: CYP11B1 (11β-Hydroxylase); conditions: cited from earlier work

melting point: 225.4 to 226.9 °C
SMILES: O=[N+]([O-])c1cc(C(F)(F)F)ccc1Sc1ncc(CO)n1Cc1ccccc1 [X12, (1-Benzyl-2-((2-nitro-4-(trifluoromethyl)phenyl)thio)-1H-imidazol-5-yl)methanol]

inhibition of CYP19A1 (CYP19A1 (Aromatase)): no inhibition
SMILES: OCc1cnc(S)n1Cc1ccc(Cl)cc1Cl [X1]

IC50 (MCF-7 cells; Homo sapiens, MCF7, 24 h, MCF-7, 24 h): 764 ± 114 nM
IC50 (MCF-7 cells; Homo sapiens, MCF7, 48 h, MCF-7, 48 h): 599 ± 333 nM
IC50 (MCF-7 cells; Homo sapiens, MCF7, 72 h, MCF-7, 72 h): 121 ± 30 nM
IC50 (MCF-7 cells; MCF-7, 72 h): 120 ± 30 nM
SMILES: N#Cc1ccc(C(c2ccc(C#N)cc2)n2cncn2)cc1 [letrozole]
IC50 [1]: 1420 nM
IC50 [2]: 2620 nM
